Here are results for 36 molecules from patent US12600696B2 (XENIOPRO GMBH, priority 2017, dated 2026).

Structures are written as SMILES.

One experiment has as its system Notch signaling (hNotch1ΔE, human Notch1 receptor) in HeLa cells. The experiment is described as follows: Notch reporter assay (luciferase luminescence readout in transfected HeLa cells). The format is cell-based. The note with it: 10 μM, 20 hours, relative to DMSO baseline level of 1.0. As to the method:
An according Notch-reporter assay, i.e. a luciferase-based luminescence readout, was used here to quantify the ability of the claimed small molecules to augment Notch signaling in a cellular system. For this purpose, HeLa cells, obtainable from the American Type Culture Collection (ATCC) under the accession number ATCC-CCL-2, were transiently transfected for 24 hours using FuGENE® HD (Promega, #E2311) as transfection reagent with expression vectors of a membrane-tethered form of the constitutively active intracellular domain of the human Notch1 receptor (hNotch1ΔE) to activate the signaling cascade (BPS Bioscience, human analogue to Notch Pathway Reporter Kit #60509 component C), a Firefly luciferase being expressed under the control of a Notch-responsive promoter to monitor Notch signaling (BPS Bioscience, Notch Pathway Reporter Kit #60509, CSL luciferase reporter vector from component A not premixed with Renilla luciferase vector), and a Renilla luciferase being constitutively expressed in a Notch signaling independent manner to include a measure for the cell number per sample (Promega, pRL-SV40, #E2231). HeLa cells were cultivated according to the protocol of the provider in DMEM medium (Fisherscientific, #11584456) containing 10% fetal bovine serum (Fisherscientific, #15517589). The transfection was carried out in a 100 mm-culture dish (StarLab, #CC7682-3394) with cells being properly attached to the plate at a cell confluency of 80-90% in a total volume of 7 mL culture medium. Per dish to be transfected, a transfection mix was prepared by adding to 238 μL Opti-MEM (Fisherscientific, #10149832) 40 μL of the hNotch1ΔE expression vector (100 ng/μL), 80 μL of the CSL luciferase reporter vector (40 ng/μL), 4 μL of the pRL-SV40-Renilla luciferase vector (10 ng/μL), and in the last step 18.1 μL of FuGENE® HD. After addition of FuGENE® HD the transfection mix was let stand for 15 min at room temperature and hereafter equally distributed into the culture dish. Subsequently, i.e. after 24 hours of transfection, the transfected cells (10.000 cells per well) were incubated with the test-compounds at a final concentration of 10 μM (diluted from 10 mM stock-solutions in DMSO to a final DMSO concentration of 0.1% v/v) or with the empty carrier DMSO at 0.1% v/v as control for 20 hours in 96-well plates suitable for luminescence readouts (CORNING, #3610). Hereafter, the cells were lysed with 30 μL per well of Passive Lysis Buffer (Promega, #E194A, component of Dual-Luciferase® Reporter Assay System, #E1910) and the Firefly as well as Renilla luciferase values were measured with a luminescence reader with applying 15 μL per well each of the corresponding enzyme substrates needed to create the luminescence signals (Promega, Dual-Luciferase® Reporter Assay System, #E1910).
The suitability of the assays for monitoring Notch signaling was controlled by additionally including a generally accepted commercial Notch inhibitor, i.e. DAPT, as negative control, as well as the reported Notch enhancer resveratrol (RES) as positive control (Pinchot et al., Cancer 2011, 117, 1386-1398; Truong et al., Ann. Surg. Oncol. 2011, 18, 1506-1511; Yu et al., Mol. Cancer Ther. 2013, 12, 1276-1287). Both control compounds were likewise tested at 10 μM.
Per single experiment the measurement was performed in six replicates per compound. For every compound, this experiment was repeated in three or more independent replicates. The values of the Notch-reporter luciferase were normalized by division through the corresponding individual Notch-independent Renilla values in order to eliminate the impact of variation in the absolute cell-numbers in between the samples. For every individual plate, a second normalization was performed against the equally weighted arithmetic mean (here abbreviated as AVE) of the six associated Renilla-normalized DMSO-control values within a single experiment in order to obtain the relative values to a baseline level of 1.0. […]
(In general: Reporter assays use an easily measured gene product as a stand-in for the process of interest.)
For the molecule `C[C@H](NC(=O)Cc1cc(F)cc(F)c1)C(=O)N[C@H](C(=O)OC(C)(C)C)c1ccccc1` [DAPT, reference compound], the “AVEw, weighted arithmetic mean of double-normalized Notch-reporter luciferase luminescence values (Activity Range)” value is recorded as 0.1 ± 0.0.

Still in this experiment, the particulars now being: Homo sapiens, 20 hours, relative to DMSO baseline level of 1.0, read-out: AVEw, weighted arithmetic mean of double-normalized Notch-reporter luciferase luminescence values (Activity Range).
`CCCc1ccc(Oc2ccc(C(=O)O)cc2)cc1` [Compound 003, 4-(4-propylphenoxy)benzoic acid]: the fold induction at 10 µM was in the range of 1.7 to 2.

On to `CCCCc1ccc(Oc2ccc(C(=O)O)cc2)cc1` [Compound 004, 4-(4-butylphenoxy)benzoic acid], for which the fold induction at 10 µM lay in the range of 1.4 to 1.7.

With `CCCCCc1ccc(Oc2ccc(C(=O)O)cc2)cc1` [Compound 005, 4-(4-Pentylphenoxy)benzoic acid], the fold induction at 10 µM lay in the range of 1.7 to 2.

With `CC(C)c1ccc(Oc2ccc(C(=O)O)cc2)cc1` [Compound 007, 4-(4-isopropylphenoxy)benzoic acid], the fold induction at 10 µM fell in the range of 1.2 to 1.3.

As to `O=C(O)c1ccc(Oc2ccc(C3C[C@@H]4CC[C@H]3C4)cc2)cc1` (stereo partly drawn) [Compound 019, 4-(4-((1S,4R)-bicyclo[2.2.1]heptan-2-yl)phenoxy)benzoic acid], the fold induction at 10 µM fell in the range of 1.2 to 1.3.

`CCCc1ccc(Oc2ccc(C(=O)OC)cc2)cc1` [Compound 025, methyl 4-(4-propylphenoxy)benzoate]: the fold induction at 10 µM was 1.2 to 1.3.

`CCCCc1ccc(Oc2ccc(C(=O)OC)cc2)cc1` [Compound 026, methyl 4-(4-butylphenoxy)benzoate]: the fold induction at 10 µM lay within 1.4 to 1.7.

In the case of `CCCCCc1ccc(Oc2ccc(C(=O)OC)cc2)cc1` [Compound 027, methyl 4-(4-pentylphenoxy)benzoate], the fold induction at 10 µM was in the range of 1.7 to 2.

In the case of `CCCc1ccc(Oc2ccc(C(=O)OCC)cc2)cc1` [Compound 050, ethyl 4-(4-propylphenoxy)benzoate], the fold induction at 10 µM was 1.4 to 1.7.

Turning to `CCCCc1ccc(Oc2ccc(C(=O)OCC)cc2)cc1` [Compound 051, Ethyl 4-(4-butylphenoxy)benzoate], the fold induction at 10 µM lay within 1.7 to 2.

On to `CCCCCc1ccc(Oc2ccc(C(=O)OCC)cc2)cc1` [Compound 052, ethyl 4-(4-pentylphenoxy)benzoate], for which the fold induction at 10 µM fell in the range of 1.4 to 1.7.

Consider `CCCc1ccc(Oc2ccc(C(=O)O)cn2)cc1` [Compound 071, 6-(4-Propylphenoxy)nicotinic acid], for which the fold induction at 10 µM fell in the range of 1.4 to 1.7.

As for `COC(=O)c1ccc(Oc2ccc(C)cc2)nc1` [Compound 091, methyl 6-(p-tolyloxy)nicotinate], the fold induction at 10 µM is 1.2 to 1.3.

Consider `COC(=O)c1ccc(Oc2ccc(C34CC5CC(CC(C5)C3)C4)cc2)nc1` [Compound 114, Methyl 6-(4-(adamantan-1-yl)phenoxy)nicotinate], for which the fold induction at 10 µM lay within 1.7 to 2.

For `CCOC(=O)c1ccc(Oc2ccc(CC)cc2)nc1` [Compound 117, Ethyl 6-(4-Ethylphenoxy)nicotinate], the fold induction at 10 µM lay in the range of 1.4 to 1.7.

`CCCc1ccc(Oc2ccc(C(=O)OCC)cn2)cc1` [Compound 118, ethyl 6-(4-propylphenoxy)nicotinate]: the fold induction at 10 µM was in the range of 1.1 to 1.2.

On to `CCCCCc1ccc(Oc2ccc(C(=O)OCC)cn2)cc1` [Compound 120, ethyl 6-(4-pentylphenoxy)nicotinate], for which the fold induction at 10 µM was in the range of 1.4 to 1.7.

For `CCOC(=O)c1ccc(Oc2ccc(C(C)C)cc2)nc1` [Compound 122, ethyl 6-(4-isopropylphenoxy)nicotinate], the fold induction at 10 µM was in the range of 1.3 to 1.4.

Turning to `CNC(=O)c1ccc(Oc2ccc(C)cc2)cc1` [Compound 189, N-methyl-4-(p-tolyloxy)benzamide], the fold induction at 10 µM was 1.1 to 1.2.

For `CNC(=O)c1ccc(Oc2ccc(C(C)C)cc2)cc1` [Compound 195, 4-(4-Isopropylphenoxy)-N-methylbenzamide], the fold induction at 10 µM fell in the range of 1.2 to 1.3.

Take `CN(C)C(=O)c1ccc(Oc2ccc(C3CCCCC3)cc2)cc1` [Compound 234, 4-(4-cyclohexylphenoxy)-N,N-dimethylbenzamide]: the fold induction at 10 µM was 1.1 to 1.2.

Take `Cc1ccc(Oc2ccc(C(N)=O)cn2)cc1` [Compound 241, 6-(p-Tolyloxy)nicotinamide]: the fold induction at 10 µM lay in the range of 1.2 to 1.3.

As to `CCc1ccc(Oc2ccc(C(N)=O)cn2)cc1` [Compound 242, 6-(4-ethylphenoxy)nicotinamide], the fold induction at 10 µM lay in the range of 1.2 to 1.3.

As for `CC(C)c1ccc(Oc2ccc(C(N)=O)cn2)cc1` [Compound 247, 6-(4-isopropylphenoxy)nicotinamide], the fold induction at 10 µM was 1.2 to 1.3.

As to `CNC(=O)c1ccc(Oc2ccc(C)cc2)nc1` [Compound 291, N-methyl-6-(p-tolyloxy)nicotinamide], the fold induction at 10 µM was in the range of 1.4 to 1.7.

As to `CCc1ccc(Oc2ccc(C(=O)NC)cn2)cc1` [Compound 292, 6-(4-ethylphenoxy)-N-mtehylnicotinamide], the fold induction at 10 µM was in the range of 1.3 to 1.4.

Turning to `CNC(=O)c1ccc(Oc2ccc(C(C)C)cc2)nc1` [Compound 297, 6-(4-Isopropylphenoxy)-N-methylnicotinamide], the fold induction at 10 µM lay in the range of 1.4 to 1.7.

On to `CCCc1ccc(Oc2ccc(C(=O)O)cc2F)cc1` [Compound 343, 3-fluoro-4-(4-propylphenoxy)benzoic acid], for which the fold induction at 10 µM was 1.1 to 1.2.

With `CCCCc1ccc(Oc2ccc(C(=O)O)cc2F)cc1` [Compound 344], the fold induction at 10 µM was 1.3 to 1.4.

Turning to `O=C(O)c1ccc(Oc2ccc(C34CC5CC(CC(C5)C3)C4)cc2)c(F)c1` [Compound 363, 4-(4-((3r,5r,7r)-adamantan-1-yl)phenoxy)-3-fluorobenzoic acid], the fold induction at 10 µM lay in the range of 1.2 to 1.3.

As to `CCCc1ccc(Oc2ccc(C(=O)OCC)cc2F)cc1` [Compound 394, ethyl 3-fluoro-4-(4-propylphenoxy)benzoate], the fold induction at 10 µM lay within 1.4 to 1.7.

On to `CCCCCc1ccc(Oc2ccc(C(=O)OCC)cc2F)cc1` [Compound 396, ethyl 3-fluoro-4-(4-pentylphenoxy)benzoate], for which the fold induction at 10 µM was in the range of 1.2 to 1.3.

Consider `CCC(C)(C)c1ccc(Oc2ncc(C(=O)OC)cc2F)cc1` [Compound 451, Methyl 5-fluoro-6-(4-(tert-pentyl)phenoxy)nicotinate], for which the fold induction at 10 µM is 1.1 to 1.2.

As to `O=C(O)c1ccc(Oc2ccc(C3(C(F)(F)F)CC3)cc2)cc1` [Compound 703, 4-(4-(1-(Trifluoromethyl)cyclopropyl)phenoxy)benzoic acid], the fold induction at 10 µM was in the range of 1.1 to 1.2.

As to `O=C(O)c1ccc(Oc2ccc(C3(C(F)(F)F)CC3)cc2)nc1` [Compound 730, 6-(4-(1-(Trifluoromethyl)cyclopropyl)phenoxy)nicotinic acid], the fold induction at 10 µM was 1.1 to 1.2.
